# Measurements from US9809589B2, “Crystal form of compound used as mineralocorticoid receptor antagonist and preparation method therefor” (KBP BIOSCIENCES CO., LTD., priority 2012, dated 2017).
# Entries after “also recorded” stand apart in the source; their conditions may differ.
# What was measured:
# [1] = system: high salt induced Dahl salt sensitive (Dahl/SS) rats; assay: Assay 3: pathological examinations for kidney and heart (organ protection) in Dahl/ss rat model; type: in vivo; details: for left ventricular wall thickness (mean ± SD) / Kidney injury scores (Mean ± SD): 42 days high salt chow; for Kidney injury scores (Mean ± SD): HE stain
# Description: (§1) Organ protection and depressurization effect of Crystal Form I of the present invention on the high salt induced Dahl salt sensitive (Dahl/SS) rats
# (§2) The solid dispersion of Crystal Form I of the present invention (Crystal Form I of the present invention: PVPK30=1:8 (w/w)): the solid dispersion of Crystal Form I of the present invention was formulated with a suitable amount of sterile water for injection into suspensions having concentrations of 0.03, 0.10, 0.30, and 1.00 mg/mL. The suspension was prepared before use every day.
# (§3) Experiment animals: male Dahl/ss rats of SPF (specific pathogen free)-grade, 8-9 weeks, purchased via Vital River Laboratories from HARLAN LABORATORIES, INC. After one week normal quarantine, rats in good sign and condition were used in the experiment.
# (§4) Dahl/ss rats were randomly divided into six groups according to the blood pressure measurement before administration:
# (§5) The in vivo pharmacodynamic activity of Crystal Form I of the present invention was evaluated by the hypertension and kidney injury Dahl/ss rat's model.
# (§6) One week before the experiment, the blood pressures of rats were monitored twice by the tail-cuff blood pressure measurement so that the rats could accommodate the blood pressure monitoring operation. The blood pressures of rats were monitored once before starting the experiment and used as the basic blood pressures before administration. The rats were randomly divided into groups according to the measured blood pressures before administration. The model was established by feeding the rats with a high salt chow (AIN-93G experiment animal feed containing 4% NaCl) for 42 days, in which the rats were freely accessible to food and water. And rats in control group were fed with a low-sodium chow.
# (§7) The rats in the treatment groups with Crystal Form I of the present invention were respectively administrated with Crystal Form I of the present invention in a dosage of 0.3, 1, 3, and 10 mg/kg/day. Rats in treatment groups were dosed orally via gavage twice a day by 5 mL/kg. The rats in the model group and in the normal control were administrated with the same volume of sterile water for injection.
# The pathological examinations for kidney and heart: After the experiment, the rats were killed in a painless manner. The heart and the bilateral kidneys were collected for histopathology analysis. Kidney injury was scored and semi-quantitatively analyzed based on hematoxylin-eosin (HE) stain. The heart injury was analyzed by the measurement of left ventricular wall thickness.
# [2] = Assay 1: stability (influencing factor tests) for Crystal Form I; HPLC content; type: physicochemical
# Description: Assay 1: Stability for Crystal Form I of the Present Compound
# Crystal Form I of the compound represented by formula (1): Crystal Form I was prepared according to Example 2.
# (§8) (1) Crystal Form I of the compound represented by formula (1) was laid on a dry and clean watch glass, and kept at 60° C. for 10 days. Samples were taken respectively on Day 5 and Day 10. The contents of the relevant substance and the compound represented by formula (1) in the sample were measured, and compared with the contents of those in the sample taken on Day 0;
# (§9) (2) Crystal Form I of the compound represented by formula (1) was packaged and sealed with a low-density polyethylene bag for pharmaceutical use in the inner layer and with a polyester/aluminum/polyethylene composite film for pharmaceutical package in the outer layer, and kept at 60° C. for 10 days. Samples were taken respectively on Day 5 and Day 10. The contents of the relevant substance and the compound represented by formula (1) in the sample were measured, and compared with the contents of those in the sample taken on Day 0.
# as §8, with “High humidity test: Crystal” for “(1) Crystal”, “at 25°” for “at 60°”, “C. under a relative humidity of 90%±5%” for “C.”, “Day 0.” for “Day 0;”
# as §8, with “Photostability test: Crystal” for “(1) Crystal”, “at an illuminance of 4500 L×±500 L× in an illumination box” for “at 60° C.”, “Day 0.” for “Day 0;”
# (§10) The content of the compound represented by formula (1) was measured by using an external standard method in accordance with the High Performance Liquid Chromatography in Chinese Pharmacopoeia, Appendix V D, Edition 2010.
# (§11) The content of the relevant substance was measured by using an area normalization method in accordance with the High Performance Liquid Chromatography in Chinese Pharmacopoeia, Appendix V D, Edition 2010.
# [3] = system: high salt induced Dahl salt sensitive (Dahl/SS) rats; assay: Assay 3: depressurization effect (SBP, tail-cuff) in hypertension and kidney injury Dahl/ss rat model; type: in vivo; details: for SBP Before Administration (mean ± SD): baseline, solid dispersion with PVPK30 1:8, oral gavage twice a day; for SBP After Administration (on 41th day) (mean ± SD): oral gavage twice a day, 4% NaCl chow, solid dispersion with PVPK30 1:8
# Description: as §1, §2, §3, §4, §5, §6, §7
# Blood pressure (systolic blood pressure, abbreviated as SBP) measurement: The blood pressure was measured once each week for six weeks. The blood pressure changes were analyzed for each group.
# [4] = Assay 2: stability (influencing factor tests) for Crystal Form II; HPLC content; type: physicochemical
# Description: Stability for Crystal Form II of the present compound
# Crystal Form II of the compound represented by formula (1): Crystal Form II was prepared according to Example 4.
# as §8, with “II” for “I”, “Sample was” for “Samples were”, “taken” for “taken respectively”, “on” for “on Day 5 and”
# as §9, with “II” for “I”, “Sample was” for “Samples were”, “taken” for “taken respectively”, “on” for “on Day 5 and”
# (§12) High humidity test: Crystal Form II of the compound represented by formula (1) was laid on a dry and clean watch glass, and kept at 25° C. under a relative humidity of 90%±5% for 10 days. Sample was taken respectively on Day 10. The contents of the relevant substance and the compound represented by formula (1) in the sample were measured, and compared with the contents of those in the sample taken on Day 0.
# as §12, with “Photostability” for “High humidity”, “an illuminance” for “25° C. under a relative humidity”, “5000 L×±500 L× in an illumination box” for “90%±5%”, “taken” for “taken respectively”
# as §10, §11
# [5] = 60° C.-(1), open watch glass, Day 5
# [6] = 60° C.-(1), open watch glass, Day 10
# [7] = 60° C.-(2), packaged and sealed, Day 5
# [8] = 60° C.-(2), packaged and sealed, Day 10
# [9] = high temperature, high humidity, illumination
smiles,measurement,setting,value
"N#Cc1ccc(N2N=C3c4ccc(C(=O)N5CCC(O)CC5)nc4CC[C@@H]3[C@@H]2C2CCCC2)cc1Cl [Crystal Form I, 2-chloro-4-[(3S,3aR)-3-cyclopentyl-7-(4-hydroxypiperidin-1-carbonyl)-3,3a,4,5-tetrahydro-2H-pyrazolo[3,4-f]quinolin-2-yl]benzonitrile]",left ventricular wall thickness (mean ± SD),[1]; 0.3 mg/kg/day oral,0.392 ± 0.024 cm
same,Kidney injury scores (Mean ± SD),[1]; 0.3 mg/kg/day oral,2.02 ± 0.268
same,left ventricular wall thickness (mean ± SD),[1]; 1 mg/kg/day oral,0.383 ± 0.017 cm
same,Kidney injury scores (Mean ± SD),[1]; 1 mg/kg/day oral,1.25 ± 0.428
same,left ventricular wall thickness (mean ± SD),[1]; 3 mg/kg/day oral,0.381 ± 0.026 cm
same,Kidney injury scores (Mean ± SD),[1]; 3 mg/kg/day oral,1.84 ± 0.596
same,left ventricular wall thickness (mean ± SD),[1]; 10 mg/kg/day oral,0.383 ± 0.019 cm
same,Kidney injury scores (Mean ± SD),[1]; 10 mg/kg/day oral,1.71 ± 0.719
same,Heart protection (left ventricular wall thickness),[1]; compared with the model group,significantly decreased the left ventricular wall thickness
same,Kidney protection (kidney injury score),"[1]; treatment groups vs model group, listed as Crystal Form I of the present invention",remarkable prevention from the increase in the kidney injury score; also recorded: kidney injury protection
same,Stability compared with the amorphous form,[2],superior to the amorphous form in the stability
same,Content of the compound represented by formula (1),[2]; [5],98.9%
same,Content of the relevant substance,[2]; [5],0.82%
same,Content of the compound represented by formula (1),[2]; [6],98.1%
same,Content of the relevant substance,[2]; [6],0.97%
same,Content of the compound represented by formula (1),[2]; [7],99.7%
same,Content of the relevant substance,[2]; [7],0.58%
same,Content of the compound represented by formula (1),[2]; [8],99.0%
same,Content of the relevant substance,[2]; [8],0.60%
same,Content of the compound represented by formula (1),"[2]; 4500 Lx ± 500 Lx, Day 5",98.1%
same,Content of the relevant substance,"[2]; 4500 Lx ± 500 Lx, Day 5",1.2%
same,Content of the compound represented by formula (1),"[2]; 4500 Lx ± 500 Lx, Day 10",97.0%
same,Content of the relevant substance,"[2]; 4500 Lx ± 500 Lx, Day 10",2.0%
same,Content of the compound represented by formula (1),[2]; Day 0,99.5%
same,Content of the relevant substance,[2]; Day 0,0.54%
same,Content of the compound represented by formula (1),"[2]; RH90% ± 5%, 25° C., Day 5",99.1%
same,Content of the relevant substance,"[2]; RH90% ± 5%, 25° C., Day 5",0.56%
same,Content of the compound represented by formula (1),"[2]; RH90% ± 5%, 25° C., Day 10",99.0%
same,Content of the relevant substance,"[2]; RH90% ± 5%, 25° C., Day 10",0.56%
same,Change of contents of the relevant substance and the compound represented by formula (1),[2]; [9],substantially did not change
same,SBP Before Administration (mean ± SD),[3]; 0.3 mg/kg/day group,140.8 ± 9.6 mmHg
same,SBP After Administration (on 41th day) (mean ± SD),[3]; 0.3 mg/kg/day,166.5 ± 10.2 mmHg
same,SBP Before Administration (mean ± SD),[3]; 1 mg/kg/day group,140.9 ± 9.5 mmHg
same,SBP After Administration (on 41th day) (mean ± SD),[3]; 1 mg/kg/day,148.7 ± 9.6 mmHg
same,SBP Before Administration (mean ± SD),[3]; 3 mg/kg/day group,141.0 ± 9.4 mmHg
same,SBP After Administration (on 41th day) (mean ± SD),[3]; 3 mg/kg/day,141.6 ± 8.0 mmHg
same,SBP Before Administration (mean ± SD),[3]; 10 mg/kg/day group,141.2 ± 9.2 mmHg
same,SBP After Administration (on 41th day) (mean ± SD),[3]; 10 mg/kg/day,141.2 ± 9.6 mmHg
same,Depressurization effect,"[3]; 0.3-10 mg/kg/day oral, high salt Dahl/ss rats, listed as Crystal Form I of the present invention",significant depressurization effect; also recorded: remarkable depressurization effect
"N#Cc1ccc(N2N=C3c4ccc(C(=O)N5CCC(O)CC5)nc4CC[C@@H]3[C@@H]2C2CCCC2)cc1Cl [Crystal Form II, 2-chloro-4-[(3S,3aR)-3-cyclopentyl-7-(4-hydroxypiperidin-1-carbonyl)-3,3a,4,5-tetrahydro-2H-pyrazolo[3,4-f]quinolin-2-yl]benzonitrile]",Stability compared with the amorphous form,[4],superior to the amorphous form in the stability
same,Content of the compound represented by formula (1),[4]; [6],96.2%
same,Content of the relevant substance,[4]; [6],2.8%
same,Content of the compound represented by formula (1),[4]; [8],97.1%
same,Content of the relevant substance,[4]; [8],2.7%
same,Content of the compound represented by formula (1),"[4]; 5000 Lx ± 500 Lx, Day 10",95.5%
same,Content of the relevant substance,"[4]; 5000 Lx ± 500 Lx, Day 10",2.8%
same,Content of the compound represented by formula (1),[4]; Day 0,96.2%
same,Content of the relevant substance,[4]; Day 0,2.6%
same,Content of the compound represented by formula (1),"[4]; RH90% ± 5%, 25° C., Day 10",96.9%
same,Content of the relevant substance,"[4]; RH90% ± 5%, 25° C., Day 10",2.6%
same,Change of contents of the relevant substance and the compound represented by formula (1),[4]; [9],substantially did not change
